Source: US9260439B2, “Dihydropyrrolopyrimidine derivatives” (PFIZER INC., priority 2014, dated 2016)

target: truncated PI3Kα (p110α/iSH2 p85α) (Homo sapiens (Human), UniProt P42336); assay: PI3KA_Act fluorescence polarization kinase assay (Ki); assay type: biochemical; settings: 1 mM ATP
Text: 2) p110α-iSH2 p85α Complex (Full Length p110α and p85α iSH2)(“PI3KA_Act”)
Genes encoding for full length p110α and p85α nSH-iSH2=niSH2 (p85a aminoacids 322-600) subunits of PI3Kα complex were subcloned from existing constructs into pFASTBAC Dual vector (Life Technologies, Carlsbad, Calif.) using standard cloning procedures. Gene encoding p110α subunit was subcloned into polyhedrine promoter while gene encoding p85α niSH2 domains was subcloned into p10 promoter. Additionally, Human Rhinovirus 3C Protease (“HRV 3C”) site was introduced between nSH2 and iSH2, replacing aminoacids 431-438 of p85α with […] HRV 3C recognition sequence, using standard QuickChange mutagenesis protocol (Agilent Technologies, CA). Recombinant baculovirus was generated using Bac-to-Bac protocol (Life Technologies, Carlsbad, Calif.). Large scale expression was conducted in Sf21 (Life Technologies, Carlsbad, Calif.) cells at a multiplicity of infection (“MOI”)=1 for 48 hours. Cells were lyzed in 50 mM Tris pH 8.0, 250 mM NaCl, 5% glycerol, 0.25 mM TCEP, and 20 mM imidazole. The p110α-niSH2 p85α complex was purified from clarified supernatant using Immobilized Metalo Affinity Chromatography (“IMAC”). The protein was eluted from the column using 50 mM Tris pH 8.0, 200 mM NaCl, 0.25 mM TCEP, and 200 mM imidazole. Following elution p110α-niSH2 p85α complex was dialyzed against 4 liters of 50 mM Tris pH 8.0, 200 mM NaCl, 0.25 mM TCEP, and 40 mM imidazole in the presence of PreScission Protease (1:70 molar ratio of Protease to Protein) and TEV protease (1:40 molar ratio protease to protein) for 16 hours at 4° C. The protein was further purified using reverse IMAC to remove cleaved histidine tag and contaminants captured during initial IMAC purification. The mixture of p110α-iSH2 p85α complex and cleaved nSH2 was recovered in reverse IMAC 40 mM imidazole flow through and 60 mM imidazole wash fractions. Those fractions were pulled together and loaded on Superdex 200 26/60 SEC column equilibrated in 25 mM Tris, pH 8.0, 100 mM NaCl, 2% glycerol, and 2 mM TCEP. Following SEC, chromatography peak fractions containing p110α-iSH2 p85α complex were pulled and concentrated to 4.3 mg/mL. Purity and integrity of the complex was confirmed using LCMS, analytical SEC and SDS-PAGE (sodium dodecyl sulfate polyacrylamide gel electrophoresis) analysis.
The biochemical assays of kinase activity of full-length PI3Kα (full-length p110α/p85a) or truncated PI3Kα (p110α/iSH2 p85a) were conducted using a fluorescence polarization format similar to the procedure of Yuan J., et al., (2011) “PF-04691502, a Potent and Selective Oral Inhibitor of PI3K and mTOR Kinases with Antitumor Activity”, Mol Cancer Ther. 10, 2189-2199. The enzymatic reactions were conducted in 50 μL volumes in 96-well plates. The reactions contained human recombinant PI3Kα (2 nM full-length p110α/p85α or 0.5 nM p110α/iSH2 p85) and 30 μM phosphatidylinositol 4,5-bisphosphate (“PIP2”) (Cayman Chemical Company, Ann Arbor, Mich.) and were sonicated for 1 minute prior to adding PI3Kα enzyme (PI3KA_Act or PI3KA_FL), DMSO or test compound (12-point 3-fold serial dilution, 3 μM top dose, 2° A) DMSO final concentration), 5 mM MgCl2, 50 mM HEPES pH 7.4, 150 mM NaCl, 1 mM DTT ((2S,3S)-1,4-bis(sulfanyl)butane-2,3-diol), and 0.05% 3-[(3-cholamidopropyl)dimethylammonio]-1-propanesulfonate (“CHAPS”). […] The reactions were incubated for 30 min at room temperature, stopped with EDTA pH 8 (10 mM final concentration). In a detection plate, 15 μL of detector/probe mixture, containing 480 nM GST-Grp1 PH domain protein (University of Dundee, Dundee, UK) and 12 nM carboxytetramethylrhodamine (“TAMRA”)-tagged fluorescent phosphatidylinositol (3,4,5)-triphosphate (“PIP3”) (Echelon Biosciences, Inc., Salt Lake City, Utah) in assay buffer, was mixed with 15 μL of kinase reaction mixture. The plate was shaken for 30 minutes and fluorescence polarization values were measured on an LJL Analyst HT plate reader (Molecular Devices, Sunnyvale, Calif.). […]

Sequence of truncated PI3Kα (p110α/iSH2 p85α) (P42336 whole entry, the tested form may be a part): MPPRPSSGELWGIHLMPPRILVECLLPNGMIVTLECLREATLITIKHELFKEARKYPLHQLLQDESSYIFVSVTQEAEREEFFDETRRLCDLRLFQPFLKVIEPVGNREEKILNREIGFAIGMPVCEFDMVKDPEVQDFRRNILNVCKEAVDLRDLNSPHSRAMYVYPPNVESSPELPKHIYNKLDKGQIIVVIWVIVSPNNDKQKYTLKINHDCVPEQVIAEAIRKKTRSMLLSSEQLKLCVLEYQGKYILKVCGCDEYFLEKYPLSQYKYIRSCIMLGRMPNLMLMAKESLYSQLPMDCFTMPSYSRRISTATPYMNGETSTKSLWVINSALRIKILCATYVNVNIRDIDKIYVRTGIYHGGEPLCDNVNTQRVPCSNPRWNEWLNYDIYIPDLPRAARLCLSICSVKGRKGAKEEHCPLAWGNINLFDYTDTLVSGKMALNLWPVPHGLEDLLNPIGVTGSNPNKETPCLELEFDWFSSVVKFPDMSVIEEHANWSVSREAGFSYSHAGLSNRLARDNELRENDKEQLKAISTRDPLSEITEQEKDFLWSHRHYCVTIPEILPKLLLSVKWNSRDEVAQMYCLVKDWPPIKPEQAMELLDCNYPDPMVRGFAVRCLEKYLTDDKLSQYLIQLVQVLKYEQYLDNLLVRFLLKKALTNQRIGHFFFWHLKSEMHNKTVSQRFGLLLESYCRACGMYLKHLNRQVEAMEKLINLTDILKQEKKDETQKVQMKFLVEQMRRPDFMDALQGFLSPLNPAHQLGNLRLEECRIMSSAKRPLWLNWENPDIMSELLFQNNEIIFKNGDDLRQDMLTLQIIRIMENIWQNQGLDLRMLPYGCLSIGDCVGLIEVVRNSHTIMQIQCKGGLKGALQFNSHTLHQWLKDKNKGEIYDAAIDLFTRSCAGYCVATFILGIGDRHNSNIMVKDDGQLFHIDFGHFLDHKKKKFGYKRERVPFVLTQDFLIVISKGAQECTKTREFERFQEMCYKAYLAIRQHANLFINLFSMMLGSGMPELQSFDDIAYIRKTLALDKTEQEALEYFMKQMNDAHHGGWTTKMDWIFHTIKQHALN

Compound | PI3KA_Act Ki [nM]
CNS(=O)(=O)N1CC[C@](C)(N2CCc3c(-c4cnc(N)nc4)nc(N4CCOCC4)nc32)C1 [Example 173] | <0.018
C[C@H]1COCCN1c1nc(-c2cnc(N)nc2)c2c(n1)N([C@]1(C)CCN(S(C)(=O)=O)C1)CC2 [Example 174] | 0.030
C[C@H]1COCCN1c1nc(-c2cnc(N)nc2)c2c(n1)N([C@@]1(C)CCN(S(C)(=O)=O)C1)CC2 [Example 175] | 0.023
CC(C)C(C)(C)N1CCc2c(-c3cnc(N)nc3)nc(N3CCOCC3)nc21 [Example 176] | 0.462
C[C@H]1COCCN1c1nc(-c2cnc(N)nc2)c2c(n1)N([C@@H]1CCN(P(C)(C)=O)C1)CC2 [Example 177] | 0.615
Cn1cc(S(=O)(=O)N2CC(N3CCc4c(-c5cnc(N)nc5)nc(N5CCOCC5)nc43)C2)cn1 [Example 178] | 0.125
Cn1cnc(S(=O)(=O)N2CC(N3CCc4c(-c5cnc(N)nc5)nc(N5CCOCC5)nc43)C2)c1 [Example 179] | 0.344
CP(C)(=O)N1CC[C@@H](N2CCc3c(-c4cnc(N)nc4)nc(N4CCOCC4)nc32)C1 [Example 180] | 1.759
CP(C)(=O)N1CC[C@H](N2CCc3c(-c4cnc(N)nc4)nc(N4CCOCC4)nc32)C1 [Example 181] | 0.296
C[C@H](O)COC(=O)N1CC(N2CCc3c(-c4cnc(N)nc4)nc(N4CCOC[C@@H]4C)nc32)C1 [Example 182] | 0.357
CC(C)(CO)N1CCc2c(-c3cnc(N)nc3)nc(N3CCOCC3)nc21 [Example 183] | 0.393
CCC(C)(C)N1CCc2c(-c3cnc(N)nc3)nc(N3CCOCC3)nc21 [Example 184] | 0.647
C[C@@H](O)COC(=O)N1CC(N2CCc3c(-c4cnc(N)nc4)nc(N4CCOCC4)nc32)C1 [Example 185] | 0.182
C[C@@H](O)COC(=O)N1CC(N2CCc3c(-c4cnc(N)nc4)nc(N4CCOC[C@@H]4C)nc32)C1 [Example 186] | 0.274
CCCC(C)(C)N1CCc2c(-c3cnc(N)nc3)nc(N3CCOCC3)nc21 [Example 187] | 0.839
COCC(C)(C)N1CCc2c(-c3cnc(N)nc3)nc(N3CCOCC3)nc21 [Example 188] | 0.642
CP(C)(=O)N1CC(N2CCc3c(-c4cnc(N)nc4)nc(N4CCOCC4)nc32)C1 [Example 189] | 1.162
CNS(=O)(=O)N1CC(C)(N2CCc3c(-c4cnc(N)nc4)nc(N4CCOCC4)nc32)C1 [Example 190] | 0.040
CC(C)(CNS(C)(=O)=O)N1CCc2c(-c3cnc(N)nc3)nc(N3CCOCC3)nc21 [Example 191] | 0.881
C[C@@]1(N2CCc3c(-c4cnc(N)nc4)nc(N4CCOCC4)nc32)CCN(S(N)(=O)=O)C1 [Example 192] | 0.053
CC(C)(C)OC(=O)N1CC[C@](C)(N2CCc3c(-c4cnc(N)nc4)nc(N4CCOCC4)nc32)C1 [Example 194] | <0.018
CC(C)(C)OC(=O)N1CC[C@@](C)(N2CCc3c(-c4cnc(N)nc4)nc(N4CCOCC4)nc32)C1 [Example 195] | 0.166
CCS(=O)(=O)N1CC(C)(N2CCc3c(-c4cnc(N)nc4)nc(N4CCOCC4)nc32)C1 [Example 196] | 0.024

Compound | PI3KA_Act Ki [nM]
CC1(N2CCc3c(-c4cnc(N)nc4)nc(N4CCOCC4)nc32)CN(S(=O)(=O)C2CC2)C1 [Example 197] | 0.040
CC(C)S(=O)(=O)N1CC(C)(N2CCc3c(-c4cnc(N)nc4)nc(N4CCOCC4)nc32)C1 [Example 198] | 0.024
CC1(N2CCc3c(-c4cnc(N)nc4)nc(N4CCOCC4)nc32)CNC1 [Example 199] | 0.151
CCOC(=O)C(C)(C)N1CCc2c(-c3cnc(N)nc3)nc(N3CCOC[C@@H]3C)nc21 [Example 200] | 0.909
COCCC(=O)N1CC(N2CCc3c(-c4cnc(N)nc4)nc(N4CCOC[C@@H]4C)nc32)C1 [Example 202] | 1.037
CCS(=O)(=O)N1CC(C)(N2CCc3c(-c4cnc(N)nc4)nc(N4CCOC[C@@H]4C)nc32)C1 [Example 203] | 0.032
CC(C)S(=O)(=O)N1CC(C)(N2CCc3c(-c4cnc(N)nc4)nc(N4CCOC[C@@H]4C)nc32)C1 [Example 204] | <0.018
C[C@H]1COCCN1c1nc(-c2cnc(N)nc2)c2c(n1)N(C1(C)CN(S(=O)(=O)C3CC3)C1)CC2 [Example 205] | 0.021
C[C@H]1COCCN1c1nc(-c2cnc(N)nc2)c2c(n1)N(C1(C)CN(S(C)(=O)=O)C1)CC2 [Example 206] | 0.031
C[C@H]1COCCN1c1nc(-c2cnc(N)nc2)c2c(n1)N(C1CN(S(=O)(=O)C3CN(C(=O)OC(C)(C)C)C3)C1)CC2 [Example 207] | 0.100
CC1(N2CCc3c(-c4cnc(N)nc4)nc(N4CCOCC4)nc32)CN(S(N)(=O)=O)C1 [Example 208] | 0.062
CC1(N2CCc3c(-c4cnc(N)nc4)nc(N4CCOCC4)nc32)CN(S(C)(=O)=O)C1 [Example 209] | 0.045
CC(=O)NCC(=O)N1CC(N2CCc3c(-c4cnc(N)nc4)nc(N4CCOCC4)nc32)C1 [Example 210] | 0.898
CC(=O)N1CC[C@@](C)(N2CCc3c(-c4cnc(N)nc4)nc(N4CCOCC4)nc32)C1 [Example 211] | 0.078
CC(C)C(=O)NCC(=O)N1CC(N2CCc3c(-c4cnc(N)nc4)nc(N4CCOC[C@@H]4C)nc32)C1 [Example 212] | 0.534
COC(=O)N1CC[C@](C)(N2CCc3c(-c4cnc(N)nc4)nc(N4CCOCC4)nc32)C1 [Example 213] | 0.030
COC(=O)N1CC[C@@](C)(N2CCc3c(-c4cnc(N)nc4)nc(N4CCOCC4)nc32)C1 [Example 214] | 0.128
C[C@@]1(N2CCc3c(-c4cnc(N)nc4)nc(N4CCOCC4)nc32)CCNC1 [Example 215] | 0.476
CNC(=O)N1CC[C@](C)(N2CCc3c(-c4cnc(N)nc4)nc(N4CCOCC4)nc32)C1 [Example 216] | 0.124
CN(CC(C)(C)N1CCc2c(-c3cnc(N)nc3)nc(N3CCOCC3)nc21)S(C)(=O)=O [Example 217] | 0.191
CC(C)C(=O)NCC(=O)N1CC(N2CCc3c(-c4cnc(N)nc4)nc(N4CCOCC4)nc32)C1 [Example 218] | 0.751
C[C@H]1COCCN1c1nc(-c2cnc(N)nc2)c2c(n1)N(C1(C)CN(S(N)(=O)=O)C1)CC2 [Example 219] | 0.037
